Reference: paper PMC2981816, “Oxalyl retro-peptide gelators. Synthesis, gelation properties and stereochemical effects” (Beilstein Journal of Organic Chemistry, 2010)
Values belong to the molecule of their own block, whether it stands above or below them.

Legend:
Assay type in all cases: physicochemical
[1] = Gelation test: gelator effectiveness (Geff) and minimal gelation concentration in solvents and solvent mixtures
[2] = as above; set-up: key: sol.: soluble; ins.: insoluble; cr.: crystalline; [A]: gel/sol mixture; details: max. volume immobilized by 10 mg gelator, Table 3
Experimental: (§1) Gelation observed for selected gelator–solvent pairs is expressed by gelator effectiveness (Geff, mL) corresponding to the maximal volume of solvent that could be immobilized by 10 mg of the gelator (Table 1). […] However, 3a and 5a also gelled small to moderate volumes of EtOH and rac-2-octanol, whilst Leu incorporating 1a formed gels with the more lipophilic solvents, decalin and tetralin. […] Apparently, the retro-peptides incorporating aliphatic and aromatic amino acids are less versatile gelators compared to retro-peptides containing […] amino acid fragments. The latter points to the importance of intermolecular lipophilic interactions for the stabilization of gel assemblies being stronger in the case of identical amino acids either lipophilic or aromatic, and weaker for mixed aromatic-lipophilic amino acid fragments present in the gelator molecule.

[3] = as above; set-up: key: sol.: soluble; ins.: insoluble; cr.: crystallization; [A]: gel/sol mixture; details: max. volume immobilized by 10 mg gelator, Table 3
Experimental: as §1

[4] = as above; set-up: key to Gelator effectiveness (Geff): sol.: soluble; ins.: insoluble; cr.: crystallization; [A]: gel/sol mixture; details: for Gelation effectiveness (Geff): Table 3
Experimental: as §1

[5] = Concentration-dependent 1H NMR of toluene-d8 gel samples (self-assembly saturation point)
Text: In the first case the oxalamide NH and Leu-NH protons were downfield shifted by 1.6 and 1.8 ppm, respectively, for a gelator concentration increase from 0.001–0.1 mol dm^−3. […] The monitored protons of (S,S)-1b are more strongly downfield shifted than the corresponding protons of (S,R)-1b for the same concentration range. Similar trends of NH and C*H concentration induced shifts are observed for (S,S)-1b and its racemate (S,S)-1b/(R,R)-1b toluene-d8 gels (Figure 6). Again the magnitudes of the NH and C*H concentration induced shifts are higher for the (S,S)-1b than for the racemate gel. […]
If the racemate were organized in the conglomerate as separate enantiomeric (S,S)-1b and (R,R)-1b assemblies, the magnitudes of the concentration induced shifts should be similar to those measured the for (S,S)-1b assemblies. […]
The discontinuous concentration induced shift curves obtained for (S,R)-1b diasteroisomer may indicate the presence of different assemblies at lower and higher gelator concentrations. It appears that the first saturation point is reached at a concentration around 0.03 mol dm^-3 and the second at 0.12 mol dm^−3, the latter corresponding nicely to the experimentally determined MGC of 0.116 mol dm^−3. […]

[6] = max. volume immobilized by 10 mg gelator, CH2Cl2, Table 2
[7] = max. volume immobilized by 10 mg gelator, CH3CN, Table 2
[8] = max. volume immobilized by 10 mg gelator, H2O/DMF mixture, given as volume + volume, Table 2
[9] = max. volume immobilized by 10 mg gelator, H2O/DMSO mixture, given as volume + volume, Table 2
[10] = max. volume immobilized by 10 mg gelator, H2O, Table 2
[11] = max. volume immobilized by 10 mg gelator, THF, Table 2
[12] = max. volume immobilized by 10 mg gelator, decalin, Table 2
[13] = max. volume immobilized by 10 mg gelator, p-xylene, Table 2
[14] = max. volume immobilized by 10 mg gelator, tetralin, Table 2
[15] = max. volume immobilized by 10 mg gelator, toluene, Table 2
[16] = max. volume immobilized by 10 mg gelator, H2O/DMF mixture, given as volume + volume
[17] = max. volume immobilized by 10 mg gelator, H2O/DMSO mixture, given as volume + volume
[18] = max. volume immobilized by 10 mg gelator, tetralin

Molecule: O=C(N[C@H](C(=O)N[C@H](C(=O)O)c1ccccc1)c1ccccc1)C(=O)N[C@H](C(=O)N[C@H](C(=O)O)c1ccccc1)c1ccccc1 [3a, (S,S)-N,N'-Oxalyl-bis(phenylglycyl-phenylglycine)]
solubility in water [1]: insoluble

Molecule: NC(=O)[C@@H](NC(=O)[C@@H](NC(=O)C(=O)N[C@H](C(=O)N[C@H](C(N)=O)c1ccccc1)c1ccccc1)c1ccccc1)c1ccccc1 [3c, bis(PhgPhgNH2)]
Gelation effectiveness (Geff) ([2]; H2O/DMF mixture, given as volume + volume): cr. | Gelation effectiveness (Geff) ([2]; H2O/DMSO mixture, given as volume + volume): cr. | Gelation effectiveness (Geff) ([3]; CH2Cl2): ins. | Gelation effectiveness (Geff) ([3]; CH3CN): ins. | Gelation effectiveness (Geff) ([3]; EtOH): ins. | Gelation effectiveness (Geff) ([3]; H2O): ins. | Gelation effectiveness (Geff) ([3]; THF): ins. | Gelation effectiveness (Geff) ([3]; p-xylene): ins. | Gelation effectiveness (Geff) ([3]; tetralin): ins. | Gelation effectiveness (Geff) ([3]; toluene): ins. | Gelation effectiveness (Geff) ([3]; ±2-octanol): ins.

Molecule: CC(C)C[C@H](NC(=O)[C@H](CC(C)C)NC(=O)C(=O)N[C@@H](CC(C)C)C(=O)N[C@@H](CC(C)C)C(N)=O)C(N)=O [(S,S)-1c, bis(LeuLeuNH2)]
Gelation effectiveness (Geff) ([4]; max. volume immobilized by 10 mg gelator, CH2Cl2 + DMSO (footnote a), volume + volume): 1.05+0.2^a mL | Gelation effectiveness (Geff) [4, 16]: 0.45+0.75 mL | Gelation effectiveness (Geff) [4, 17]: 0.55+1.4 mL | Gelation effectiveness (Geff) [4, 18]: 7.3 mL | Gelation effectiveness (Geff) ([4]; max. volume immobilized by 10 mg gelator, toluene + DMSO (footnote a), volume + volume): 1.05+0.2^a mL | Gelation effectiveness (Geff) ([2]; EtOH): cr. | Gelation effectiveness (Geff) ([3]; CH3CN): ins. | Gelation effectiveness (Geff) ([3]; H2O): ins. | Gelation effectiveness (Geff) ([3]; THF): ins. | Gelation effectiveness (Geff) ([3]; p-xylene): ins. | Gelation effectiveness (Geff) ([3]; ±2-octanol): ins.

Molecule: (S,R)-N,N'-Oxalyl-bis(leucyl-leucine methyl ester) [(S,R)-1b]
Gelator effectiveness (Geff) [4, 6]: sol. | Gelator effectiveness (Geff) [4, 7]: cr. | Gelator effectiveness (Geff) ([4]; max. volume immobilized by 10 mg gelator, EtOH, Table 2): cr. | Gelator effectiveness (Geff) [4, 8]: 11.5+11.7 mL | Gelator effectiveness (Geff) [4, 9]: 9.7+10.0 mL | Gelator effectiveness (Geff) [4, 10]: ins. | Gelator effectiveness (Geff) [4, 11]: cr. | Gelator effectiveness (Geff) [4, 12]: 0.8 mL | Gelator effectiveness (Geff) [4, 13]: 0.5 mL | Gelator effectiveness (Geff) [4, 14]: 0.2 mL | Gelator effectiveness (Geff) [4, 15]: 0.15 mL | Gelator effectiveness (Geff) ([4]; max. volume immobilized by 10 mg gelator, ±2-octanol, Table 2): cr. | minimal gelation concentration (MGC) ([4]; toluene, experimentally determined): 0.116 mol dm^−3 | second saturation point of concentration induced 1H NMR shifts ([5]; toluene-d8): 0.12 mol dm^−3 | saturation point of concentration induced 1H NMR shifts (self-assembly equilibrium) ([5]; toluene-d8, concentration range 0.001–0.1 mol dm^−3, first or only saturation point): around 0.03 mol dm^−3

Molecule: bis(Leu)oxalamide [reference compound]
Gelator effectiveness (Geff) ([4]; max. volume immobilized by 10 mg gelator, CH2Cl2 + DMSO (footnote a), given as volume + volume, Table 1): 1.5+0.05^a mL | Gelator effectiveness (Geff) ([4]; max. volume immobilized by 10 mg gelator, CH3CN, Table 1): 0.95 mL | Gelator effectiveness (Geff) ([4]; max. volume immobilized by 10 mg gelator, EtOH, Table 1): 1.5 mL | Gelator effectiveness (Geff) ([4]; max. volume immobilized by 10 mg gelator, H2O/DMF mixture, given as volume + volume, Table 1): cr. | Gelator effectiveness (Geff) ([4]; max. volume immobilized by 10 mg gelator, H2O/DMSO mixture, given as volume + volume, Table 1): 0.8+0.4 mL | Gelator effectiveness (Geff) ([4]; max. volume immobilized by 10 mg gelator, THF, Table 1): 0.4 mL | Gelator effectiveness (Geff) ([4]; max. volume immobilized by 10 mg gelator, decalin, Table 1): 0.2 mL | Gelator effectiveness (Geff) ([4]; max. volume immobilized by 10 mg gelator, p-xylene, Table 1): 2.45 mL | Gelator effectiveness (Geff) ([4]; max. volume immobilized by 10 mg gelator, tetralin, Table 1): 3.0 mL | Gelator effectiveness (Geff) ([4]; max. volume immobilized by 10 mg gelator, toluene, Table 1): 1.95 mL | Gelator effectiveness (Geff) ([4]; max. volume immobilized by 10 mg gelator, ±2-octanol, Table 1): 10.95 mL | Gelator effectiveness (Geff) ([4]; maximal volume of solvent immobilized by 10 mg of gelator, solvent H2O, Table 1): 0.4 mL

Results, then the molecule that gave them:

Gelator effectiveness (Geff) [4, 6]: sol. | Gelator effectiveness (Geff) [4, 7]: cr | Gelator effectiveness (Geff) [4, 8]: cr. | Gelator effectiveness (Geff) [4, 9]: 0.2+0.5 mL | Gelator effectiveness (Geff) [4, 10]: ins. | Gelator effectiveness (Geff) [4, 11]: sol. | Gelator effectiveness (Geff) [4, 12]: 4.8 mL | Gelator effectiveness (Geff) [4, 13]: 1.1 mL | Gelator effectiveness (Geff) [4, 14]: 0.9 mL | Gelator effectiveness (Geff) [4, 15]: 1.25 mL
Molecule: COC(=O)[C@H](CC(C)C)NC(=O)[C@@H](NC(=O)C(=O)N[C@H](C(=O)N[C@@H](CC(C)C)C(=O)OC)c1ccccc1)c1ccccc1 [4b, (S,S)-N,N'-Oxalyl-bis(phenylglycyl-leucine methyl ester)]

solubility in water [1]: insoluble
Molecule: O=C(N[C@@H](Cc1ccccc1)C(=O)N[C@@H](Cc1ccccc1)C(=O)O)C(=O)N[C@@H](Cc1ccccc1)C(=O)N[C@@H](Cc1ccccc1)C(=O)O [5a, (S,S)-N,N'-Oxalyl-bis(phenylalanyl-phenylalanine)]

Gelation effectiveness (Geff) [4, 16]: 2.7+3.0 mL | Gelation effectiveness (Geff) [4, 17]: 1.3+1.6 mL | Gelation effectiveness (Geff) [4, 18]: 2.0 mL | Gelation effectiveness (Geff) ([3]; CH2Cl2): ins. | Gelation effectiveness (Geff) ([3]; CH3CN): ins. | Gelation effectiveness (Geff) ([3]; EtOH): ins. | Gelation effectiveness (Geff) ([3]; H2O): ins. | Gelation effectiveness (Geff) ([3]; THF): ins. | Gelation effectiveness (Geff) ([3]; p-xylene): ins. | Gelation effectiveness (Geff) ([3]; toluene): ins. | Gelation effectiveness (Geff) ([3]; ±2-octanol): ins.
Molecule: NC(=O)[C@H](Cc1ccccc1)NC(=O)[C@H](Cc1ccccc1)NC(=O)C(=O)N[C@@H](Cc1ccccc1)C(=O)N[C@@H](Cc1ccccc1)C(N)=O [5c, bis(PhePheNH2)]
